From patent US11801284B2, “Compositions and methods for treating motor neuron diseases” (The Trustees of Columbia University in the City of New York, priority 2017, dated 2023) come the findings set out here.

One assay relates to SMN. Briefly: SMN levels in spinal cord tissue of SMA mice by western blotting. The conditions noted are these: PND10 SMA mice, western blot, β-tubulin loading control; FIG. 7. It is filed as in vivo. The procedure:
PND10 mice of the indicated genotypes were euthanized, and the spinal cord tissue extracted to determine SMN levels by western blotting. β-tubulin was used as a loading control. Band intensities were determined using the NIH ImageJ software.
In general terms: Immunoblotting shows a protein as a band on a membrane.

A further assay relates to S. cerevisae. In words: in vivo microautophagy assay (vacuolar membrane invagination and intraluminal vesicle formation in yeast). The class given is cell-based. Conditions: in vivo study employing WT and Hspa8^G470R proteins. An excerpt: Expt. 2B: Does the G470R mutation affect Hspa8-dependent microautophagy? Hspa8-dependent microautophagy relies on the ability of the protein to bind the lysosomal/endosomal membrane. In so doing, Hspa8 deforms the membrane to form tubules, a phenomenon that can be quantified using a “tubulation” assay^36. […] To test this, we will subject the two proteins and a control, Hspa8^3KA, that fails to deform membranes^36, to the tubulation assay. Essentially, bacterial lysate from E. coli over-expressing the different Hspa8 molecules will be combined with fluorescently labeled giant unilamellar vesicles (GUVs) made from a defined mixture of lipids that roughly mimic synaptic membranes^49, and the ability of the proteins to trigger membrane deformation/tubule formation will be assessed by fluorescence microscopy. To complement these in vitro experiments, we will assess the ability of Hspa8^G470R protein to deform membranes in vivo. For this, the protein and relevant controls will be separately expressed in S. cerevisae and vacuolar membrane invagination and intraluminal vesicle formation determined using a co-expressed Vba1-GFP construct as a marker^50.

The next assay deals with luciferase. In words: luciferase refolding assay (chaperone activity). It is filed as biochemical. Conditions: crude yeast lysate from cells transfected with Hspa8^G470R or WT construct; FIG. 4. The source says: Expt. 2A: Does the G470R mutation affect Hspa8 chaperone activity? There is a fine balance between the chaperone activity of Hspa8, which involves ATP and the co-chaperone proteins Sgt (small […] tetratricopeptide repeat-containing protein) and CSP (cysteine string protein), and its role in microautophagy, which is effected independently of ATP and the co-chaperones^36. Altering the ratio of Hspa8 with respect to its co-chaperones, or introducing mutations in certain Hspa8 domains, can shift the balance towards or away from microautophagy and thus alter neurotransmission at the NMJ. For instance, mutations in the ATPase domain disrupt chaperone activity but leave the role of Hspa8 in microautophagy intact. In contrast, mutations in the C-terminal domain of Hspa8, which mediate the interaction of the protein with the lysosomal/endosomal membrane, abolish microautophagy but fail to affect the ability of the protein to refold proteins (chaperone activity). […] To test this, we will examine the ability of Hspa8^G470R to refold luciferase. […] The bioluminescence from the luciferase will be assayed, following the addition of Luciferase Assay reagent (Promega), at regular intervals in a luminometer or plate reader. […]

On to “Hspa8^G470R: mutant Hsp70 family member protein Hspa8 with G470R missense mutation in the substrate binding domain”, for which, in the assay on SMN, the “SMN level in spinal cord tissue” value was “increases SMN”. For the same substance, the “competence in microautophagy assay” value with S. cerevisae is “competent”. Also, the “chaperone activity (efficiency relative to lysate containing WT Hspa8)” value with luciferase is recorded as “only a third as efficient”.
